In patent US9969766B2, “20(R)-ginsenoside Rg3 polyacylated derivatives, preparation and application thereof” (priority 2014, dated 2018):

Columns and labels:
[1] = tested on: human intestinal cancer LOVO cells; conditions: 100 mg/kg/d, ip × 2qod
Description: (§1) human breast cancer Bcap-37 model, human lung cancer A549 model, human intestinal cancer LOVO model, human stomach cancer MGC model and human liver cancer QGY model, with tumor cell lines being of the second generation or more, mouse B16 melanoma cell line, mouse Lewis lung cancer model, mouse sarcoma s180 model, all passaged and preserved in Pharmacological Division of Shanghai Institute of Pharmaceutical Industry. 3. Experiment Animals Origins: nude mice, 6-week old, 18-22 g/mouse, provided by Laboratory Animal Center of Chinese Academy of Sciences, Shanghai Branch, with certification No. 2001A032. C57BL/6 mice and Kunming mice, 18-22 g/mouse, provided by Laboratory Animal Center of Chinese Academy of Sciences, Shanghai Branch, with certification SYXK (Shanghai) 2004-0015. Gender: male or female, the same gender for each batch in experiment Animal numbers: 10 mice and 10 nude mice for each of positive control group and test group in experiment, and 20 for negative control group. 4. Experiment Design Dose Settings: doses for 20(R)-ginsenoside Rg3 octo-acetate, 20(R)-ginsenoside Rg3 octo-n-butyrate and 20(R)-ginsenoside Rg3 octo-n-propionate were set as high-dose group (0.3 mg/kg/d), medium-dose group (0.06 mg/kg/d), and low-dose group (0.012 mg/kg/d). Dosage regimen: oral administration, twice daily. human tumor model and cell-inoculated mouse model: po×14 bid; mouse tumor-inoculated model: po×10 bid. Control Trial: negative control group: given with the same volume of 5% CMC-Na as the test group, and the same dosage regimen as the test group. positive control group: Cyclophosphamide CTX 30 mg/kg, […] 5. Experiment Method and Key Steps 5.1 Anti-Tumor Test 5.1.1 Subcutaneous Inoculation Model
LOVO intestinal cancer cells (cultured in vitro) of logarithmic growth stage were taken under sterile condition and prepared into cell suspensions of about 1.8×10^7/ml using RPMI1640 culture medium as diluent. The nude mice were subjected to general anesthesia and cut in belly after routine disinfection to belly skin, the spleens were taken out and inoculated with LOVO intestinal cancer cell suspensions (0.05 ml/mouse) and then restored, the incisions were sutured, and the mice were placed in the cages and then put in the laminar flow rack.

[2] = tested on: human lung cancer A549 cells; experiment: Human lung cancer A549 (subcutaneous inoculation) metastasis model; conditions: 100 mg/kg/d, ip × 2qod
mouse Lewis lung cancer [3] = experiment: Mouse Lewis lung cancer, toe subcutaneous inoculation, anti-tumor test; conditions: 100 mg/kg/d, ip × 14qod
Description: as §1
(§2) Tumor cells of vigorous growth stage were taken under sterile condition and made into cell suspensions of about 1-2×10^7/ml by homogenization, the suspensions were inoculated subcutaneously at 0.2 ml/mouse in host mice and repeated on the next day according to the experiment design, the animals in each group were slaughtered after about three weeks, the tumors were collected and weighed, and the tumor inhibition rates were calculated according to the following equation: tumor inhibition rate %=[(average tumor weight of control group-average tumor weight of treatment group)/average tumor weight of control group]×100%

mouse melanoma B16 cells = experiment: Mouse melanoma B16 tail vein inoculation, lung metastasis; conditions: 100 mg/kg/d, ip × 2qod
Description: (§3) human breast cancer Bcap-37 model, human lung cancer A549 model, human intestinal cancer LOVO model, human stomach cancer MGC model and human liver cancer QGY model, with tumor cell lines being of the second generation or more, mouse B16 melanoma cell line, mouse Lewis lung cancer model, mouse sarcoma s180 model, all passaged and preserved in Pharmacological Division of Shanghai Institute of Pharmaceutical Industry. 3. Experiment Animals Origins: nude mice, 6-week old, 18-22 g/mouse, provided by Laboratory Animal Center of Chinese Academy of Sciences, Shanghai Branch, with certification No. 2001A032. C57BL/6 mice and Kunming mice, 18-22 g/mouse, provided by Laboratory Animal Center of Chinese Academy of Sciences, Shanghai Branch, with certification SYXK (Shanghai) 2004-0015. Gender: male or female, the same gender for each batch in experiment Animal numbers: 10 mice and 10 nude mice for each of positive control group and test group in experiment, and 20 for negative control group. 4. Experiment Design Dose Settings: doses for 20(R)-ginsenoside Rg3 octo-acetate, 20(R)-ginsenoside Rg3 octo-n-butyrate and 20(R)-ginsenoside Rg3 octo-n-propionate were set as high-dose group (0.3 mg/kg/d), medium-dose group (0.06 mg/kg/d), and low-dose group (0.012 mg/kg/d). Dosage regimen: oral administration, twice daily. human tumor model and cell-inoculated mouse model: po×14 bid; mouse tumor-inoculated model: po×10 bid. Control Trial: negative control group: given with the same volume of 5% CMC-Na as the test group, and the same dosage regimen as the test group. positive control group: Cyclophosphamide CTX 30 mg/kg, MMC 2 mg/kg and 5Fu 30 mg/kg by intraperitoneal or intravenous administration, once daily, for seven consecutive days. 5. Experiment Method and Key Steps 5.1 Anti-Tumor Test 5.1.1 Subcutaneous Inoculation Model

mouse sarcoma S180 cells = experiment: Mouse sarcoma S180 metastasis model; conditions: 100 mg/kg/d, ip × 2qod
Description: as §3

[4] = tested on: human breast cancer Bcap-37 cells; experiment: Human breast cancer Bcap-37 subcutaneous inoculation in nude mice; conditions: 100 mg/kg/d, ip × 2qod
Description: as §1, with “group:” for “group: Cyclophosphamide CTX 30 mg/kg,”
as §2
The same operation was repeated in human tumor xenograft model, except that the feed, packing, cage and contact instruments were all sterilized under high pressure before use and the nude mice were fed in a laminar flow rack. The tumors and tumor-bearing animal weight gains were dynamically measured (tumor size measured using caliper: long diameter/a, short diameter/b, and tumor bulk=a×b^2/2).

[5] = tested on: human stomach cancer MGC cells; experiment: Human stomach cancer MGC in-situ inoculation, survival; conditions: 100 mg/kg/d, ip × 2qod
Description: as §3

mouse Lewis lung cancer [6] = experiment: Mouse Lewis lung cancer (subcutaneous inoculation) metastasis model; conditions: 100 mg/kg/d, ip × 2qod
Description: as §3, §2

[7] = tested on: human liver cancer QGY cells; experiment: Human liver cancer QGY liver in-situ inoculation, survival; conditions: 100 mg/kg/d, ip × 2qod
Description: as §3
Under sterile condition, the in vivo passage of the second generation of QGY tumor source of vigorous growth stage was prepared into cell suspensions of about 1-2×10^7/ml by homogenization (1:6), and the homogenates were filtered using 100-mesh stainless steel screen, getting ready for use. The nude mice were disinfected routinely and anaesthetized and cut at the xiphoid in the middle of the abdominal cavity to expose the liver, the cell suspensions (0.05 ml) were injected into liver parenchyma using imported 28 ga ½ ml syringes, the abdominal cavity was closed and then sutured layer by layer. The nude mice were fed in the laminar flow rack, with all the feed, packing, cage and contact instruments being sterilized under high pressure before use.

[8] = Solubility of the isolated products; type: physicochemical
[9] = cited from earlier work

Compound: O=P1(N(CCCl)CCCl)NCCCO1 (centres unmarked) [CTX, cyclophosphamide, reference compound]
- Animal body weight (g) Start [1]: 19.5 g
- Animal body weight (g) end [1]: 21.1 g
- Average survival (d) X ± SD [1]: 29.36 ± 3.3 days
- Life extension rate T/C × % [1]: 214.91%
- Animal body weight (g) Start [2]: 19.6 g
- Animal body weight (g) end [2]: 21.3 g
- Anti-metastasis rate % [2]: 85.10%
- Lung clone numbers (mice) X ± SD [2]: 0.29 ± 0.12
- Animal body weight (g) Start (mouse Lewis lung cancer [3]): 20.2 g
- Animal body weight (g) end (mouse Lewis lung cancer [3]): 21.9 g
- Tumor inhibition rate % (mouse Lewis lung cancer [3]): 93.92%
- Tumor-bearing toe weight (g) X ± SD (mouse Lewis lung cancer [3]): 0.0541 ± 0.02 g
- Animal body weight (g) Start (mouse melanoma B16 cells): 20.1 g
- Animal body weight (g) end (mouse melanoma B16 cells): 21.4 g
- Anti-metastasis rate % (mouse melanoma B16 cells): 95.30%
- Lung clone numbers (mice) X ± SD (mouse melanoma B16 cells): 2.26 ± 2.8
- Animal body weight (g) Start (mouse sarcoma S180 cells): 20.2 g
- Animal body weight (g) end (mouse sarcoma S180 cells): 21.0 g
- Anti-metastasis rate % (mouse sarcoma S180 cells): 93.84%
- Lung clone numbers (mice) X ± SD (mouse sarcoma S180 cells): 0.18 ± 2.1
- Animal body weight (g) Start [4]: 20.4 g
- Animal body weight (g) end [4]: 22.0 g
- Tumor inhibition rate % [4]: 89.90%
- Tumor weight (g) X ± SD [4]: 0.130 ± 0.06 g
- Animal body weight (g) Start [5]: 19.5 g
- Animal body weight (g) end [5]: 21.1 g
- Average survival (d) X ± SD [5]: 41.22 ± 3.5 days
- Life extension rate T/C × % [5]: 181.01%
- Animal body weight (g) Start (mouse Lewis lung cancer [6]): 19.4 g
- Animal body weight (g) end (mouse Lewis lung cancer [6]): 21.0 g
- Anti-metastasis rate % (mouse Lewis lung cancer [6]): 82.12%
- Lung clone numbers (mice) X ± SD (mouse Lewis lung cancer [6]): 0.50 ± 0.09
- Animal body weight (g) Start [7]: 19.1 g
- Animal body weight (g) end [7]: 21.0 g
- Average survival (d) X ± SD [7]: 37.23 ± 3.4 days
- Life extension rate T/C × % [7]: 159.44%

Compound: CCCCCC(=O)OC[C@H]1O[C@@H](OC2CC[C@]3(C)C(CC[C@@]4(C)C3C[C@H](OC(=O)CCCCC)C3C([C@@](C)(O)CCC=C(C)C)CC[C@@]34C)C2(C)C)[C@H](OC2O[C@H](COC(=O)CCCCC)[C@@H](OC(=O)CCCCC)[C@H](OC(=O)CCCCC)[C@H]2OC(=O)CCCCC)[C@@H](OC(=O)CCCCC)[C@@H]1OC(=O)CCCCC (stereo partly drawn) [20(R)-Ginsenoside Rg3 octo-n-hexanoate]
- Solubility in ethanol ([8]; ethanol): soluble
- Solubility in water ([8]; water): soluble

Compound: CC(C)=CCC[C@@](C)(O)[C@H]1CC[C@]2(C)[C@@H]1[C@H](O)C[C@@H]1[C@@]3(C)CC[C@H](O[C@@H]4O[C@H](CO)[C@@H](O)[C@H](O)[C@H]4O[C@@H]4O[C@H](CO)[C@@H](O)[C@H](O)[C@H]4O)C(C)(C)[C@@H]3CC[C@]12C [20 (R)-ginsenoside Rg3, 20 (R)-Ginsenoside Rg3]
- Solubility in low polarity or non-polar solvent ([9]; petroleum ether, chloroform and other low polarity or non-polar solvent): not soluble
- Solubility in pyridine, ethanol solution, strong acid and strong alkaline solutions ([9]; pyridine, ethanol solution (50%˜70%), strong acid aqueous solutions (pH<2), strong alkaline solutions (pH>10)): easily soluble
- Solubility in water and other high polarity solvents ([9]; water and other high polarity solvents): not soluble
